# According to patent US10131652B2, “Pyrimidinyloxy benzene derivatives as herbicides” (E. I. DU PONT DE NEMOURS AND COMPANY, priority 2014, dated 2018):
# Read-outs that look alike come from different tables or passages of the source.
# Columns and labels:
# Assay type in all cases: in vivo
# [1] = test system: galium (catchweed bedstraw, Galium aparine); assay: Test D pre-/postemergence plant response; settings: Galium; for pest or weed control at 31 g/ha: 31 g ai/ha; for pest or weed control at 62 g/ha: 62 g ai/ha; for pest or weed control at 125 g/ha: 125 g ai/ha; for pest or weed control at 250 g/ha: 250 g ai/ha
# How it was run: (§1)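 Visual rating, 0–100 scale (0 = no effect, 100 = complete control), versus untreated controls 13 to 15 days after treatment in greenhouse. Preemergence: seeds in loam/sand soil. Postemergence: 2 to 18 cm plants, 1- to 4-leaf stage, peat-based medium. Compounds formulated in non-phytotoxic solvent plus surfactant.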
# [2] = test system: yellow nutsedge (Cyperus esculentus); assay: Test D pre-/postemergence plant response; settings: Cyperus; for pest or weed control at 31 g/ha: 31 g ai/ha; for pest or weed control at 62 g/ha: 62 g ai/ha; for pest or weed control at 125 g/ha: 125 g ai/ha; for pest or weed control at 250 g/ha: 250 g ai/ha
# How it was run: as §1
# [3] = test system: winter wheat (Triticum aestivum); assay: Test D pre-/postemergence plant response; settings: Triticum aestivum; for plant injury at 31 g/ha: 31 g ai/ha; for plant injury at 62 g/ha: 62 g ai/ha; for plant injury at 125 g/ha: 125 g ai/ha; for plant injury at 250 g/ha: 250 g ai/ha
# How it was run: as §1
# [4] = test system: ragweed (common ragweed, Ambrosia elatior); assay: Test D pre-/postemergence plant response; settings: Ambrosia artemisiifolia; for pest or weed control at 31 g/ha: 31 g ai/ha; for pest or weed control at 62 g/ha: 62 g ai/ha; for pest or weed control at 125 g/ha: 125 g ai/ha; for pest or weed control at 250 g/ha: 250 g ai/ha
# How it was run: as §1
# [5] = test system: johnsongrass (Sorghum halepense); assay: Test D pre-/postemergence plant response; settings: Sorghum halepense; for pest or weed control at 31 g/ha: 31 g ai/ha; for pest or weed control at 62 g/ha: 62 g ai/ha; for pest or weed control at 125 g/ha: 125 g ai/ha; for pest or weed control at 250 g/ha: 250 g ai/ha
# How it was run: as §1
# [6] = test system: oilseed rape (Brassica napus); assay: Test D pre-/postemergence plant response; settings: Brassica napus; for plant injury at 31 g/ha: 31 g ai/ha; for plant injury at 62 g/ha: 62 g ai/ha; for plant injury at 125 g/ha: 125 g ai/ha; for plant injury at 250 g/ha: 250 g ai/ha
# How it was run: as §1
# [7] = test system: ducksalad (Heteranthera limosa); assay: Test C flooded paddy test plant response; settings: Heteranthera limosa; Flood, 250 g ai/ha; scale of 0 to 100 where 0 is no effect and 100 is complete control; 13 to 15 days; read-out: Ducksalad plant response rating
# How it was run: (§2)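 Visual injury ratings (0, no effect; 100, complete control) were assigned after 13 to 15 days in a greenhouse, comparing treated plants with controls. Compounds had been added straight into paddy water over 2-leaf-stage plants flooded to 3 cm.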
# rice (Oryza sativa) = assay: Test C flooded paddy test plant response; settings: Oryza sativa; Flood, 250 g ai/ha; scale of 0 to 100 where 0 is no effect and 100 is complete control; 13 to 15 days; read-out: Rice plant response rating
# How it was run: as §2
# [8] = test system: barnyardgrass (Echinochloa crus-galli); assay: Test C flooded paddy test plant response; settings: Echinochloa crus-galli; Flood, 250 g ai/ha; scale of 0 to 100 where 0 is no effect and 100 is complete control; 13 to 15 days; read-out: Barnyardgrass plant response rating
# How it was run: as §2
# [9] = test system: small-flower umbrella sedge (Cyperus difformis); assay: Test C flooded paddy test plant response; settings: Cyperus difformis; Flood, 250 g ai/ha; scale of 0 to 100 where 0 is no effect and 100 is complete control; 13 to 15 days; read-out: Sedge, Umbrella plant response rating
# How it was run: as §2
# corn (Zea mays) = assay: Test B pre-/postemergence plant response; settings: Zea mays, 240 h; for Corn plant response rating (crop injury, 0 = no effect, 100 = complete kill) at 125 g/ha: 125 g ai/ha; for Corn plant response rating (crop injury, 0 = no effect, 100 = complete kill) at 500 g/ha: 500 g ai/ha
# How it was run: (§3)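 Evaluation is visual, about 10 days after application, rating injury from 0 (none) to 100 (complete control) relative to untreated controls. Application was a preemergence soil spray on seeded pots or a postemergence spray on one- to two-leaf plants.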
# [10] = test system: pigweed (Amaranthus retroflexus); assay: Test B pre-/postemergence plant response; settings: Amaranthus retroflexus, 240 h, read-out: Plant response rating, Pigweed; for pest or weed control at 125 g/ha: 125 g ai/ha; for pest or weed control at 500 g/ha: 500 g ai/ha
# How it was run: as §3
# [11] = test system: wheat (Triticum aestivum); assay: Test B pre-/postemergence plant response; settings: Triticum aestivum, 240 h, read-out: Plant response rating, Wheat; for plant injury at 125 g/ha: 125 g ai/ha; for plant injury at 500 g/ha: 500 g ai/ha
# How it was run: as §3
# [12] = test system: giant foxtail (Setaria faberii); assay: Test B pre-/postemergence plant response; settings: Setaria faberi, 240 h, read-out: Plant response rating, Foxtail, Giant; for pest or weed control at 125 g/ha: 125 g ai/ha; for pest or weed control at 500 g/ha: 500 g ai/ha
# How it was run: as §3
# [13] = test system: barnyardgrass (Echinochloa crus-galli); assay: Test B pre-/postemergence plant response; settings: Echinochloa crus-galli, 240 h, read-out: Plant response rating, Barnyardgrass; for pest or weed control at 125 g/ha: 125 g ai/ha; for pest or weed control at 500 g/ha: 500 g ai/ha
# How it was run: as §3
# [14] = post-emergence, Postemergence, scale 0 to 100, 0 no effect, 100 complete control, read-out: Plant response rating, Galium
# [15] = pre-emergence, Preemergence, read-out: Plant response rating (scale 0 to 100), Galium
# [16] = pre-emergence, Preemergence, scale 0 to 100 (0 no effect, 100 complete control), read-out: Plant response rating, Galium
# [17] = post-emergence, Postemergence, scale 0 to 100, 0 no effect, 100 complete control, read-out: Plant response rating, Nutsedge, Yellow
# [18] = pre-emergence, Preemergence, read-out: Plant response rating (scale 0 to 100), Nutsedge, Yellow
# [19] = pre-emergence, Preemergence, scale 0 to 100 (0 no effect, 100 complete control), read-out: Plant response rating, Nutsedge, Yellow
# [20] = post-emergence, Postemergence, scale 0 to 100, 0 no effect, 100 complete control, read-out: Plant response rating, Wheat
# [21] = pre-emergence, Preemergence, read-out: Plant response rating (scale 0 to 100), Wheat
# [22] = pre-emergence, Preemergence, scale 0 to 100 (0 no effect, 100 complete control), read-out: Plant response rating, Wheat
# [23] = post-emergence, Postemergence, scale 0 to 100, 0 no effect, 100 complete control, read-out: Plant response rating, Ragweed
# [24] = pre-emergence, Preemergence, read-out: Plant response rating (scale 0 to 100), Ragweed
# [25] = pre-emergence, Preemergence, scale 0 to 100 (0 no effect, 100 complete control), read-out: Plant response rating, Ragweed
# [26] = post-emergence, Postemergence, scale 0 to 100, 0 no effect, 100 complete control, read-out: Plant response rating, Johnsongrass
# [27] = pre-emergence, Preemergence, read-out: Plant response rating (scale 0 to 100), Johnsongrass
# [28] = pre-emergence, Preemergence, scale 0 to 100 (0 no effect, 100 complete control), read-out: Plant response rating, Johnsongrass
# [29] = post-emergence, Postemergence, scale 0 to 100, 0 no effect, 100 complete control, read-out: Plant response rating, Oilseed Rape
# [30] = pre-emergence, Preemergence, read-out: Plant response rating (scale 0 to 100), Oilseed Rape
# [31] = pre-emergence, Preemergence, scale 0 to 100 (0 no effect, 100 complete control), read-out: Plant response rating, Oilseed Rape
# [32] = post-emergence, postemergence, 0 to 100 scale, 0 no effect, 100 complete control
# [33] = post-emergence, Postemergence, 0 to 100 scale (0 no effect, 100 complete control)
# [34] = pre-emergence, Preemergence, 0 to 100 scale where 0 is no effect and 100 is complete control
compound,measurement,setting,value
"FC(F)c1cc(-c2ccccc2Oc2ncc(Br)cn2)no1 [Compound 62, 5-bromo-2-[2-[5-(difluoromethyl)-3-isoxazolyl]phenoxy]pyrimidine]",pest or weed control at 31 g/ha,"[1]; post-emergence, Postemergence, scale 0 to 100 (0 no effect, 100 complete control), read-out: Galium plant response rating",85%
same,pest or weed control at 62 g/ha,[1]; [14],85%
same,pest or weed control at 125 g/ha,[1]; [14],100%
same,pest or weed control at 250 g/ha,[1]; [14],100%
same,pest or weed control at 125 g/ha,[1]; [15],100%
same,pest or weed control at 250 g/ha,[1]; [15],100%
same,pest or weed control at 31 g/ha,[1]; [16],100%
same,pest or weed control at 62 g/ha,[1]; [16],100%
same,pest or weed control at 31 g/ha,"[2]; post-emergence, Postemergence, scale 0 to 100 (0 no effect, 100 complete control), read-out: Nutsedge, Yellow plant response rating",5%
same,pest or weed control at 62 g/ha,[2]; [17],5%
same,pest or weed control at 125 g/ha,[2]; [17],5%
same,pest or weed control at 250 g/ha,[2]; [17],10%
same,pest or weed control at 125 g/ha,[2]; [18],10%
same,pest or weed control at 250 g/ha,[2]; [18],60%
same,pest or weed control at 31 g/ha,[2]; [19],0%
same,pest or weed control at 62 g/ha,[2]; [19],5%
same,plant injury at 31 g/ha,"[3]; post-emergence, Postemergence, scale 0 to 100 (0 no effect, 100 complete control), read-out: Wheat plant response rating",30%
same,plant injury at 62 g/ha,[3]; [20],20%
same,plant injury at 125 g/ha,[3]; [20],10%
same,plant injury at 250 g/ha,[3]; [20],40%
same,plant injury at 125 g/ha,[3]; [21],40%
same,plant injury at 250 g/ha,[3]; [21],50%
same,plant injury at 31 g/ha,[3]; [22],0%
same,plant injury at 62 g/ha,[3]; [22],10%
same,pest or weed control at 31 g/ha,"[4]; post-emergence, Postemergence, scale 0 to 100 (0 no effect, 100 complete control), read-out: Ragweed plant response rating",65%
same,pest or weed control at 62 g/ha,[4]; [23],60%
same,pest or weed control at 125 g/ha,[4]; [23],65%
same,pest or weed control at 250 g/ha,[4]; [23],85%
same,pest or weed control at 125 g/ha,[4]; [24],75%
same,pest or weed control at 250 g/ha,[4]; [24],85%
same,pest or weed control at 31 g/ha,[4]; [25],0%
same,pest or weed control at 62 g/ha,[4]; [25],65%
same,pest or weed control at 31 g/ha,"[5]; post-emergence, Postemergence, scale 0 to 100 (0 no effect, 100 complete control), read-out: Johnsongrass plant response rating",25%
same,pest or weed control at 62 g/ha,[5]; [26],25%
same,pest or weed control at 125 g/ha,[5]; [26],75%
same,pest or weed control at 250 g/ha,[5]; [26],85%
same,pest or weed control at 125 g/ha,[5]; [27],90%
same,pest or weed control at 250 g/ha,[5]; [27],98%
same,pest or weed control at 31 g/ha,[5]; [28],30%
same,pest or weed control at 62 g/ha,[5]; [28],75%
same,plant injury at 31 g/ha,"[6]; post-emergence, Postemergence, scale 0 to 100 (0 no effect, 100 complete control), read-out: Oilseed Rape plant response rating",80%
same,plant injury at 62 g/ha,[6]; [29],90%
same,plant injury at 125 g/ha,[6]; [29],98%
same,plant injury at 250 g/ha,[6]; [29],100%
same,plant injury at 125 g/ha,[6]; [30],100%
same,plant injury at 250 g/ha,[6]; [30],100%
same,plant injury at 31 g/ha,[6]; [31],100%
same,plant injury at 62 g/ha,[6]; [31],98%
same,pest or weed control at 250 g/ha,[7],100%
same,plant injury at 250 g/ha,rice (Oryza sativa),40%
same,pest or weed control at 250 g/ha,[8],35%
same,pest or weed control at 250 g/ha,[9],90%
same,"Corn plant response rating (crop injury, 0 = no effect, 100 = complete kill) at 125 g/ha",corn (Zea mays); [32],10%
same,"Corn plant response rating (crop injury, 0 = no effect, 100 = complete kill) at 500 g/ha",corn (Zea mays); [33],50%
same,"Corn plant response rating (crop injury, 0 = no effect, 100 = complete kill) at 125 g/ha",corn (Zea mays); [34],0%
same,"Corn plant response rating (crop injury, 0 = no effect, 100 = complete kill) at 500 g/ha",corn (Zea mays); [34],20%
same,pest or weed control at 125 g/ha,[10]; [32],100%
same,pest or weed control at 500 g/ha,[10]; [33],100%
same,pest or weed control at 125 g/ha,[10]; [34],100%
same,pest or weed control at 500 g/ha,[10]; [34],100%
same,plant injury at 125 g/ha,[11]; [32],0%
same,plant injury at 500 g/ha,[11]; [33],30%
same,plant injury at 125 g/ha,[11]; [34],20%
same,plant injury at 500 g/ha,[11]; [34],30%
same,pest or weed control at 125 g/ha,[12]; [32],80%
same,pest or weed control at 500 g/ha,[12]; [33],90%
same,pest or weed control at 125 g/ha,[12]; [34],100%
same,pest or weed control at 500 g/ha,[12]; [34],100%
same,pest or weed control at 125 g/ha,[13]; [32],90%
same,pest or weed control at 500 g/ha,[13]; [33],100%
same,pest or weed control at 125 g/ha,[13]; [34],80%
same,pest or weed control at 500 g/ha,[13]; [34],100%
